Data as given in PMC3216401 (Antiviral research, 2011).
Where two headings read alike, the source gives them in different places.

Experiments:
[1] = test system: A/Hong Kong/2369/2009 (H1N1) oseltamivir resistant; test: microbe, parasite or virus in culture; assay type: cell-based; conditions: Influenza A virus, H1N1, MDCK, read-out: IC90, VYR Assay
[2] = test system: A/Hong Kong/2369/2009 (H1N1) oseltamivir resistant
[3] = test system: A/Hong Kong/2369/2009 (H1N1) oseltamivir resistant; remark: listed apart in the source
[4] = test system: A/Hong Kong/2369/2009 (H1N1) oseltamivir resistant; test: microbe, parasite or virus in culture; conditions: Influenza A virus, H1N1, MDCK, read-out: IC50, Visual Assay
[5] = test system: A/Hong Kong/2369/2009 (H1N1) oseltamivir resistant; test: microbe, parasite or virus in culture; conditions: Influenza A virus, H1N1, MDCK, read-out: IC50, Neutral Red Uptake Assay

Row | Structure (SMILES) | IC90 [1] [µM] | SI (CC50/IC50), Visual Assay [2] | SI (CC50/IC50), Neutral Red Uptake Assay [3] | IC50 [4] [µM] | IC50 [5] [µM]
1 | Nc1ccn([C@@H]2O[C@H](CO)[C@@H](O)C2(F)F)c(=O)n1 [2’-deoxy-2’, 2’-difluorocytidine, reference compound] | 0.03 | >200 | >1900 | 0.05 | 0.054
2 | Nc1ccn([C@@H]2O[C@H](CO)[C@@H](O)[C@H]2F)c(=O)n1 [2’-deoxy-2’-fluorocytidine, 2'-deoxy-2'-fluorocytidine] | 6.3 | >48 | >12.8 | 2.1 | 7.8
